# From the supplement of paper PMC10307832
# Assays:
# Experiment in all cases: relative viability (nuclei count vs DMSO), 5 days (fraction); higher = more cells survive
# Sulindac + Phenformin = compound: CC1=C(CC(=O)O)c2cc(F)ccc2/C1=C\c1ccc([S+](C)[O-])cc1 [Sulindac] + N=C(N)NC(=N)NCCc1ccccc1 [Phenformin] (partner 250 µM)
# Summary of the method: (§1)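 Medians of duplicate plates are given as relative viability. That measure is the nuclei count in treated wells divided by the count in vehicle wells. Counts were taken on 4× images of lung cancer cell lines in 1536-well plates, 5 days after pin-tool dosing the day after seeding with one drug alone or a fixed anchor-drug dose plus five library-drug doses (not always all listed) in √10 steps.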
# [1] = compound: O=c1[nH]cc(F)c(=O)[nH]1 [5-Fluorouracil] + CS(=O)(=O)CCNCc1ccc(-c2ccc3ncnc(Nc4ccc(OCc5cccc(F)c5)c(Cl)c4)c3c2)o1 [Lapatinib] (partner 2 µM)
# Summary of the method: as §1
# [2] = compound: CN[C@@H]1C[C@H]2O[C@@](C)([C@@H]1OC)n1c3ccccc3c3c4c(c5c6ccccc6n2c5c31)C(=O)NC4 [Staurosporine] + Cc1nc(NC(=O)N2CCC[C@H]2C(N)=O)sc1-c1ccnc(C(C)(C)C(F)(F)F)c1 [Alpelisib] (partner 2 µM)
# Summary of the method: as §1
# Sulindac + Decitabine = compound: CC1=C(CC(=O)O)c2cc(F)ccc2/C1=C\c1ccc([S+](C)[O-])cc1 [Sulindac] + Nc1ncn([C@H]2C[C@H](O)[C@@H](CO)O2)c(=O)n1 [Decitabine] (partner 2 µM)
# Summary of the method: as §1
Cell Line,relative viability (Sulindac + Phenformin; first compound 0.08 µM),relative viability (Sulindac + Phenformin; first compound 0.253 µM),relative viability (Sulindac + Phenformin; first compound 0.8 µM),relative viability (Sulindac + Phenformin; first compound 2.53 µM),relative viability (Sulindac + Phenformin; first compound 8 µM),relative viability ([1]; first compound 0.02 µM),relative viability ([1]; first compound 0.2 µM),relative viability ([1]; first compound 0.6325 µM),relative viability ([1]; first compound 2 µM),relative viability ([2]; first compound 0.005 µM),relative viability ([2]; first compound 0.01581 µM),relative viability ([2]; first compound 0.05 µM),relative viability ([2]; first compound 0.1581 µM),relative viability ([2]; first compound 0.5 µM),relative viability (Sulindac + Decitabine; first compound 0.08 µM),relative viability (Sulindac + Decitabine; first compound 0.253 µM),relative viability (Sulindac + Decitabine; first compound 0.8 µM),relative viability (Sulindac + Decitabine; first compound 2.53 µM),relative viability (Sulindac + Decitabine; first compound 8 µM)
EMC-BAC-2,0.551,0.566,0.352,0.533,0.61,0.968,0.975,0.858,0.907,0.34,0.23,0.0952,0.131,0.108,0.994,1,0.888,0.934,1.08
LK-2,0.412,0.421,–,–,0.529,1.17,1.08,0.697,0.535,1.24,1.18,0.451,0.191,0.0868,0.334,0.361,0.277,0.239,0.306
NCI-H460,1.03,0.666,0.201,0.543,0.585,0.964,0.446,0.106,0.0598,0.367,0.198,0.024,0.0141,0.0076,0.745,0.536,0.438,0.435,0.601
NCI-H3122,0.384,0.37,0.626,0.325,0.413,0.994,0.903,0.338,0.246,1.07,0.302,0.758,0.209,0.217,0.409,0.385,0.352,0.435,0.439
NCI-H2126,0.513,0.541,0.539,0.46,0.593,0.801,0.444,0.321,0.281,0.827,0.636,0.495,0.426,0.341,0.623,0.627,0.543,0.553,0.549
NCI-H596,0.839,0.892,0.56,0.71,0.771,1.05,0.944,0.645,0.516,0.59,0.325,0.284,0.174,0.165,0.894,0.982,–,1.2,1.1
LOU-NH91,0.708,0.68,0.681,0.717,0.853,0.777,0.83,0.497,0.406,0.718,0.575,0.457,0.304,0.305,0.776,0.8,0.715,0.798,0.873
NCI-H1651,0.399,0.342,–,0.307,0.362,1.04,0.701,0.471,0.435,0.778,0.564,0.385,0.223,0.109,0.748,0.702,0.578,0.568,0.617
NCI-H520,0.738,0.949,0.412,0.347,0.67,0.952,0.856,0.459,0.333,1.2,0.784,0.544,0.477,0.165,0.516,0.568,0.467,0.431,0.505
